Measurements taken from paper PMC5382279, “Glutaredoxin catalysis requires two distinct glutathione interaction sites” (Nature Communications, 2017).
“And” between values parts separate entries of the source, which are not always exact repeats. Equal entries are not always repeated. Numbered stars: 1 amine (or outer) side, 2 acyl side, 3 side chain; on linkers, the order of the positions; unused ones are H or OH. Square brackets hold non-standard residues; d marks the D form. Peptide text beside a SMILES is read from it. γGlu = O=C(O)[C@H](CCC(=O)[*:2])N[*:1]; Abu = CC[C@H](N)C(=O)O

What was measured:
ScGrx7 [1] = target: T1, ScGrx7 (Saccharomyces cerevisiae, UniProt P38068); assay: coupled NADPH/glutathione reductase assay, […] nm, GSSCys assay; type: biochemical; conditions: varied GSSCys 25-200 uM at fixed GSH 0.05-1.0 mM; 0.1 M Tris/HCl, 1 mM EDTA, pH 8.0, 25 C; ping-pong
T1 construct: gene GRX7; N-terminal MRGS(H)6 tag kept, E. coli XL1-Blue, pQE30/SCGRX7 double stop-codon construct
T1 sequence (P38068 33-203): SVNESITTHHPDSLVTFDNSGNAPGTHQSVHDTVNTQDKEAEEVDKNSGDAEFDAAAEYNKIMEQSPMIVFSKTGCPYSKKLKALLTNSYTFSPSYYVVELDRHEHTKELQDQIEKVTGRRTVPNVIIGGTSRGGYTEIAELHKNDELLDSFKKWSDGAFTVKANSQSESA

ScGrx7 [2] = target: T2, ScGrx7 (Saccharomyces cerevisiae, UniProt P38068, E170A); assay: as above; type: biochemical; conditions: varied GSSCys 25-200 uM at fixed GSH 0.05-1.0 mM; 0.1 M Tris/HCl, 1 mM EDTA, pH 8.0, 25 C; ping-pong
T2 construct: gene GRX7; N-terminal MRGS(H)6 tag kept, E. coli XL1-Blue, pQE30/SCGRX7 double stop-codon construct
T2 sequence (P38068 33-203 E170A): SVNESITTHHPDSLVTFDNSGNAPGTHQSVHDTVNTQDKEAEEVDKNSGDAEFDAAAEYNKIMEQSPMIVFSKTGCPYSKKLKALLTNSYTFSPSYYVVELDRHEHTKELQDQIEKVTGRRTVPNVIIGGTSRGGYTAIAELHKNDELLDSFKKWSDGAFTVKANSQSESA

ScGrx7 [3] = target: T3, ScGrx7 (Saccharomyces cerevisiae, UniProt P38068, K105A); assay: as above; type: biochemical; conditions: varied GSSCys 25-200 uM at fixed GSH 0.05-1.0 mM; 0.1 M Tris/HCl, 1 mM EDTA, pH 8.0, 25 C; ping-pong
T3 construct: gene GRX7; N-terminal MRGS(H)6 tag kept, E. coli XL1-Blue, pQE30/SCGRX7 double stop-codon construct
T3 sequence (P38068 33-203 K105A): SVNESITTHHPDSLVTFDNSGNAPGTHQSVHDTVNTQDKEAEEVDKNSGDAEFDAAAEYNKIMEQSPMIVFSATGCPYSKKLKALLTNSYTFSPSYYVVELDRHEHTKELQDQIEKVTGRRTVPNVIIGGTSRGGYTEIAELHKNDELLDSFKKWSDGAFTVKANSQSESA

ScGrx7 [4] = target: T4, ScGrx7 (Saccharomyces cerevisiae, UniProt P38068, E170K); assay: as above; type: biochemical; conditions: varied GSSCys 25-200 uM at fixed GSH 0.05-1.0 mM; 0.1 M Tris/HCl, 1 mM EDTA, pH 8.0, 25 C; ping-pong
T4 construct: gene GRX7; N-terminal MRGS(H)6 tag kept, E. coli XL1-Blue, pQE30/SCGRX7 double stop-codon construct
T4 sequence (P38068 33-203 E170K): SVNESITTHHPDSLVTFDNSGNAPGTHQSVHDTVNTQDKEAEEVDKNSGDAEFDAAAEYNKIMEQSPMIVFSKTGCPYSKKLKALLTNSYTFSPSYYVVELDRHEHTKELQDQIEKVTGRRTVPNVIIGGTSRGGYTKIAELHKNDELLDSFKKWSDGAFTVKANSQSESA

ScGrx7 [5] = target: T5, ScGrx7 (Saccharomyces cerevisiae, UniProt P38068, K105E); assay: as above; type: biochemical; conditions: varied GSSCys 25-200 uM at fixed GSH 0.05-1.0 mM; 0.1 M Tris/HCl, 1 mM EDTA, pH 8.0, 25 C; ping-pong
T5 construct: gene GRX7; N-terminal MRGS(H)6 tag kept, E. coli XL1-Blue, pQE30/SCGRX7 double stop-codon construct
T5 sequence (P38068 33-203 K105E): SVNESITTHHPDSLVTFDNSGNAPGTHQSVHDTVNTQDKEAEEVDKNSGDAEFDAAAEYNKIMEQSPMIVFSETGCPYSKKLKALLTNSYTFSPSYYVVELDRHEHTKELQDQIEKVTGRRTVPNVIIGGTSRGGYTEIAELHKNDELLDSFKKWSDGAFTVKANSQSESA

ScGrx7 [6] = target: T1, ScGrx7; assay: coupled NADPH/glutathione reductase assay, […] nm, HEDS assay; type: biochemical; conditions: varied HEDS 90-920 uM at fixed GSH 0.3-1.5 mM; 0.1 M Tris/HCl, 1 mM EDTA, pH 8.0, 25 C; sequential pattern
ScGrx7 [7] = target: T1, ScGrx7; assay: inhibition of HEDS or GSSEtOH assay; type: biochemical; conditions: up to 10 mM inhibitor; weak competitive inhibitor; HEDS or GSSEtOH as disulfide substrate with GSH
[8] = substrate: N[C@@H](CCC(=O)N[C@@H](CS)C(=O)NCC(=O)O)C(=O)O; assay: purified protein, by the assay type; set-up: HEDS oxidoreductase assay, glutathione reductase coupled, NADPH consumption at 340 nm, pH 8.0, 25 °C; conditions: pH 8.0; 25.0 °C
Method: (§1) Both assays were performed with 0.1 mM NADPH and 1 U ml^−1 GR. Final concentrations of K105X and E170X mutants were 10 nM to 1.5 μM and 5–20 nM, respectively. Final concentrations of DM, D90A and K26A were 5–10 nM, 5–12.5 nM and 50–100 nM, respectively. […] NADPH, GSH and GR were mixed in assay buffer before Grx was added and a baseline was recorded for 30 s. […] For the HEDS assays, either GSH was varied between 100 μM and 1.5 mM for ScGrx (or 250 μM and 3.0 mM for PfGrx) at fixed concentrations of HEDS (0.18, 0.37, 0.55 and 0.74 mM) or HEDS was varied between 90 and 920 μM at fixed concentrations of GSH (0.3, 0.5, 1 and 1.5 mM for ScGrx7 or 0.25, 0.5, 1 and 2 mM for PfGrx). NADPH, GSH and HEDS were preincubated in assay buffer for 2 min before GR was added and a baseline was recorded for 30 s. All HEDS assays were started by the addition of enzyme. Kinetic data were analysed in Excel and SigmaPlot 12 by non-linear and linear regression according to Michaelis–Menten, Lineweaver–Burk, Eadie–Hofstee and Hanes theory[11][12][18]. […] All data points are the mean ± S.D. from at least three independent replicates and were averaged from at least three independent protein purification experiments and subsequently plotted and fitted in Sigmaplot 12.5 according to Michaelis-Menten, Lineweaver-Burk, Eadie-Hofstee and Hanes theory (the latter two plots are not shown). […] All data points are the mean ± S.D. from at least three independent replicates and were averaged from at least three independent protein purification experiments and subsequently plotted and fitted in Sigmaplot 12.5 according to Michaelis-Menten, Lineweaver-Burk, Eadie-Hofstee and Hanes theory (the latter two plots are not shown).

[9] = substrate: OCCSSCCO; assay: purified protein, by the assay type; set-up: HEDS oxidoreductase assay, glutathione reductase coupled, NADPH consumption at 340 nm, pH 8.0, 25 °C; conditions: pH 8.0; 25.0 °C
Method: as §1

[10] = substrate: N[C@@H](CCC(=O)N[C@@H](CS)C(=O)NCC(=O)O)C(=O)O; assay: purified protein, by the assay type; set-up: HEDS assay, GR-coupled NADPH consumption at 340 nm, steady-state kinetics; conditions: pH 8.0; 25.0 °C
Method: (§2) Both assays were performed with 0.1 mM NADPH and 1 U ml^−1 GR. Final concentrations of K105X and E170X mutants were 10 nM to 1.5 μM and 5–20 nM, respectively. Final concentrations of DM, D90A and K26A were 5–10 nM, 5–12.5 nM and 50–100 nM, respectively. […] NADPH, GSH and GR were mixed in assay buffer before Grx was added and a baseline was recorded for 30 s. […] For the HEDS assays, either GSH was varied between 100 μM and 1.5 mM for ScGrx (or 250 μM and 3.0 mM for PfGrx) at fixed concentrations of HEDS (0.18, 0.37, 0.55 and 0.74 mM) or HEDS was varied between 90 and 920 μM at fixed concentrations of GSH (0.3, 0.5, 1 and 1.5 mM for ScGrx7 or 0.25, 0.5, 1 and 2 mM for PfGrx). NADPH, GSH and HEDS were preincubated in assay buffer for 2 min before GR was added and a baseline was recorded for 30 s. All HEDS assays were started by the addition of enzyme. Kinetic data were analysed in Excel and SigmaPlot 12 by non-linear and linear regression according to Michaelis–Menten, Lineweaver–Burk, Eadie–Hofstee and Hanes theory[11][12][18]. […] All data points are the mean ± S.D. from at least three independent replicates and were averaged from at least three independent protein purification experiments and subsequently plotted and fitted in Sigmaplot 12.5 according to Michaelis-Menten, Lineweaver-Burk, Eadie-Hofstee and Hanes theory (the latter two plots are not shown).

[11] = substrate: OCCSSCCO; assay: purified protein, by the assay type; set-up: HEDS assay, GR-coupled NADPH consumption at 340 nm, steady-state kinetics; conditions: pH 8.0; 25.0 °C
Method: as §2

Molecule: N[C@@H](CCC(=O)N[C@@H](CSSC[C@H](N)C(=O)O)C(=O)NCC(=O)O)C(=O)O [GSSCys]
- Km app (ScGrx7 [1]): Selected kcat ^app and Km ^app values of ScGrx7 wild-type enzyme and K105X mutants
- Km app (ScGrx7 [2]): Km ^app values for GSSCys and GSH were reciprocally doubled and halved, respectively
- Km app (ScGrx7 [3]): all K105X mutants had increased Km ^app(GSSCys) values
- Km app (ScGrx7 [4]): Km ^app values for GSSCys and GSH were reciprocally doubled and halved, respectively
- Km app (ScGrx7 [5]): all K105X mutants had increased Km ^app(GSSCys) values

Molecule: OCCSSCCO [HEDS]
- Km app (ScGrx7 [6]): Selected kcat ^app and Km ^app values of ScGrx7 wild-type enzyme and K105X mutants

Molecule: CC[C@H](NC(=O)CC[C@H](N)C(=O)O)C(=O)NCC(=O)O [ophthalmic acid, L-γ-glutamyl-L-α-aminobutyrylglycine] (γGlu-[Abu]-Gly-OH)
- % reduction of reaction velocity at up to 10 mM (ScGrx7 [7]): 10–20%

B1: ScGrx7 (Saccharomyces cerevisiae S288C) (protein)
chain: SVNESITTHHPDSLVTFDNSGNAPGTHQSVHDTVNTQDKEAEEVDKNSGDAEFDAAAEYNKIMEQSPMIVFSKTGCPYSKKLKALLTNSYTFSPSYYVVELDRHEHTKELQDQIEKVTGRRTVPNVIIGGTSRGGYTEIAELHKNDELLDSFKKWSDGAFTVKANSQSESA
notes: N-terminal MRGS(H)6 tag kept, E. coli XL1-Blue, pQE30/SCGRX7 double stop-codon construct
- Km [8]: 1200 ± 100 µM and 2300 ± 500 µM
- Km [9]: 2300 ± 700 µM and 1500 ± 200 µM
- Km [10]: 1210 ± 200 µM and 1230 ± 150 µM and 1120 ± 110 µM
- Km [11]: 2050 ± 200 µM and 1820 ± 300 µM and 3720 ± 1100 µM
